Reference: patent US8367681B2, “Pyrazolopyrimidines and related heterocycles as kinase inhibitors” (Cylene Pharmaceuticals, Inc., priority 2009, dated 2013)
pIC50: −log10 of the molar value.

Tests used:
[1] = test system: MV-4 human acute myeloid leukemia cells; experiment: Alamar Blue (AB) cell proliferation assay, MV-4-11; type: cell-based; settings: MV4-11, 96 h, MV-4-11 cells, four days with compound
Protocol: (§1) A representative cell-proliferation assay protocol using Alamar Blue dye (stored at 4° C., use 20 ul per well) is described hereafter.
(§2) 96-well Plate Setup and Compound Treatment • a. Split and trypsinize cells. • b. Count cells using hemocytometer. • c. Plate 4,000-5,000 cells per well in 100 μl of medium and seed into a 96-well plate according to the following plate layout. Add cell culture medium only to wells B10 to B12. Wells B1 to B9 have cells but no compound added.
(§3) • d. Add 100 μl of 2× drug dilution to each well in a concentration shown in the plate layout above. At the same time, add 100 μl of media into the control wells (wells B10 to B12). Total volume is 200 μl/well. • e. Incubate four (4) days at 37° C., 5% CO2 in a humidified incubator. • f. Add 20 μl Alamar Blue reagent to each well. • g. Incubate for four (4) hours at 37° C., 5% CO2 in a humidified incubator. • h. Record fluorescence at an excitation wavelength of 544 nm and emission wavelength of 590 nm using a microplate reader.
(§4) In the assays, cells are cultured with a test compound for approximately four days, the dye is then added to the cells and fluorescence of […] dye is detected after approximately four hours. Different types of cells can be utilized in the assays (e.g., HCT-116 human colorectal carcinoma cells, PC-3 human prostatic cancer cells, MDA-MB231 human breast cancer cells, K-562 human chronic myelogenous leukemia (CML) cells, MiaPaca human pancreatic carcinoma cells, MV-4 human acute myeloid leukemia cells, and BxPC3 human pancreatic adenocarcinoma cells).

[2] = test system: PC-3 human prostatic cancer cells; experiment: Alamar Blue (AB) cell proliferation assay, PC3; type: cell-based; settings: PC-3, 96 h, four days with compound
Protocol: as §1, §2, §3, §4

[3] = test system: MDA-MB231 human breast cancer cells; experiment: Alamar Blue (AB) cell proliferation assay, MDAMB231; type: cell-based; settings: MDA-MB-231, 96 h, four days with compound
Protocol: as §1, §2, §3, §4

[4] = test system: K-562 human chronic myelogenous leukemia (CML) cells; experiment: Alamar Blue (AB) cell proliferation assay, K-562; type: cell-based; settings: K562, 96 h, K-562 cells, four days with compound
Protocol: as §1, §2, §3, §4

recombinant PIM-1 = recombinant PIM-1 (Homo sapiens, UniProt P11309); experiment: PIM-1 kinase assay, 33P-ATP filter plate; type: biochemical; settings: recombinant PIM-1, 15 uM ATP; read-out: PIM1: IC50
Protocol: The following procedure was used to assay the PIM-1 kinase activity of compounds of the invention. Other methods for assaying PIM-1 and other PIM kinases, as well as methods to assay for activity against the various kinases in FIG. 1, are known in the art.
In a final reaction volume of 50 ul, recombinant PIM-1 (1 ng) was incubated with 12 mM MOPS pH 7.0, 0.4 mM EDTA, glycerol 1%, brij 35 0.002%, 2- mercaptoethanol 0.02%, BSA 0.2 mg/ml, 100 uM KKRNRTLTK SEQ ID NO.: 5, 10 mM MgAcetate, 15 uM ATP, [γ-^33P-ATP] (specific activity approx. […]), DMSO 4% and test inhibitor compound at the required concentration. The reaction was initiated by the addition of the Magnesium ATP mixture. After 40 min incubation at 23° C., the reactions were quenched by the addition of 100 ul 0.75% Phosphoric acid, and the labeled peptide collected by filtration through a phosphocellulose filter plate. The plate was washed 4 times with 0.075% phosphoric acid (100 ul per well) and then, after the addition of scintillation fluid (20 ul per well), the counts were measured by a scintillation counter.

recombinant human CK2 = target: T1, recombinant human CK2 (Homo sapiens, UniProt P68400); experiment: CK2 assay, cell-free, 33P-ATP filter plate; type: biochemical
T1 construct: purchased Upstate
Protocol: Modulatory activity of compounds described herein was assessed in vitro in cell-free CK2 assays by the following method.
Test compounds in aqueous solution were added at a volume of 10 microliters, to a reaction mixture comprising 10 microliters Assay Dilution Buffer (ADB; 20 mM MOPS, pH 7.2, 25 mM beta-glycerolphosphate, 5 mM EGTA, 1 mM sodium orthovanadate and 1 mM dithiothreitol), 10 microliters of substrate peptide (RRRDDDSDDD SEQ ID NO.: 4, dissolved in ADB at a concentration of 1 mM), 10 microliters of recombinant human CK2 (25 ng dissolved in ADB; Upstate). Reactions were initiated by the addition of 10 microliters of ATP Solution (90% 75 mM MgCl2, 75 micromolar ATP dissolved in ADB; 10% [γ-^33P]ATP (stock 1 mCi/100 μl; 3000 Ci/mmol (Perkin Elmer) and maintained for 10 minutes at 30 degrees C. The reactions were quenched with 100 microliters of 0.75% phosphoric acid, then transferred to and filtered through a phosphocellulose filter plate (Millipore). After washing each well 5 times with 0.75% phosphoric acid, the plate was dried under vacuum for 5 min and, following the addition of 15 ul of scintillation fluid to each well, the residual radioactivity was measured using a Wallac luminescence counter.

[5] = test system: MiaPaca human pancreatic carcinoma cells; experiment: Alamar Blue (AB) cell proliferation assay, MiaPaCa; type: cell-based; settings: MIA PaCa-2, 96 h, four days with compound
Protocol: as §1, §2, §3, §4

P21_BxPC3 = P21_BxPC3 cellular assay; type: cell-based; settings: Homo sapiens, BXPC-3; BxPC3 cells
P21_MDAMB231 = P21_MDAMB231 cellular assay; type: cell-based; settings: Homo sapiens, MDA-MB-231; MDAMB231 cells
recombinant human PIM2 = recombinant human PIM2 (Homo sapiens, UniProt Q9P1W9); experiment: PIM-2 kinase assay, 33P-ATP filter plate; type: biochemical; settings: PIM2, 5 μM ATP; read-out: PIM2 IC50 (printed in the PIM1: IC50 (μM) column)
Protocol: Test compounds dissolved and diluted in DMSO (2 μl) were added to a reaction mixture comprising 10 μl of 5× Reaction Buffer (40 mM MOPS pH 7.0, 5 mM EDTA), 10 μl of recombinant human PIM2 solution (4 ng PIM-2 dissolved in dilution buffer (20 mM MOPS pH 7.0; EDTA 1 mM; 5% Glycerol; 0.01% Brij 35; […]; […] 2-mercaptoethanol; 1 mg/ml BSA)) and 8 ul of water. Reactions were initiated by the addition of 10 ul of ATP Solution ([…] (15 mM MgCl2; 75 uM ATP) 1% ([γ-33P]ATP: Stock 1 mCi/100 μl; 3000 Ci/mmol (Perkin Elmer)) and 10 ul of substrate peptide solution (RSRSSYPAGT SEQ ID NO.: 6, dissolved in water at a concentration of 1 mM), Reactions were maintained for 10 min at 30° C. The reactions were quenched with 100 ul of 0.75% Phosphoric acid, then transferred to and filtered through a Phosphocellulose filter plate (Millipore, MSPH-N6B-50). After washing each well 4 times with 0.75% Phosphoric acid, scintillation fluid (20 uL) was added to each well and the residual radioactivity was measured using a Wallac luminescence counter.

Sequence of recombinant human PIM2 (Q9P1W9 whole entry): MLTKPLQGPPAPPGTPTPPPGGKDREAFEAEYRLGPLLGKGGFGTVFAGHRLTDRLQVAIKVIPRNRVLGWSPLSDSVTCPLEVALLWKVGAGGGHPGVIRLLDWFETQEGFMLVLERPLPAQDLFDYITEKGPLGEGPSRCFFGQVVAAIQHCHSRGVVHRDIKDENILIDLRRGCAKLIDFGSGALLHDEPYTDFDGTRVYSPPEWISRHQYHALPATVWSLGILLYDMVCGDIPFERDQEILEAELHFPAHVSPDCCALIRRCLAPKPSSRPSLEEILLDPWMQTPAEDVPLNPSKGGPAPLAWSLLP
Sequence of recombinant PIM-1 (P11309 whole entry): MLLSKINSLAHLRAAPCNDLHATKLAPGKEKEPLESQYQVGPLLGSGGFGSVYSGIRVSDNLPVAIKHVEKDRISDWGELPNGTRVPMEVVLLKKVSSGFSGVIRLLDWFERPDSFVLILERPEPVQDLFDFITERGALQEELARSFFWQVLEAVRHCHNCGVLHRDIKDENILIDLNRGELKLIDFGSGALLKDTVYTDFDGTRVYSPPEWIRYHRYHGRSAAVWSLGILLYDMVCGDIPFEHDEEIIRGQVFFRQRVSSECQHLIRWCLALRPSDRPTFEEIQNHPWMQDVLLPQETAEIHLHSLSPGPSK
T1 sequence (P68400 whole entry): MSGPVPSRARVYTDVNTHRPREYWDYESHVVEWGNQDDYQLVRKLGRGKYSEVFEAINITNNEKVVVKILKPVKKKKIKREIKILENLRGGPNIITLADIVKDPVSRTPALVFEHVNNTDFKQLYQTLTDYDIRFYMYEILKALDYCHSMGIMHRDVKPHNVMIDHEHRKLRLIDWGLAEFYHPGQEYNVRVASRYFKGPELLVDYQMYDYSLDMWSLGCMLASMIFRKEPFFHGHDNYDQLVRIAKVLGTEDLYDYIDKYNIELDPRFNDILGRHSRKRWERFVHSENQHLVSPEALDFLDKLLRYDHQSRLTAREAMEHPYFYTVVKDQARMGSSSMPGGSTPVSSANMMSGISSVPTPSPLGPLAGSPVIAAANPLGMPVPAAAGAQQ
T1 sequence (P67870 whole entry partner): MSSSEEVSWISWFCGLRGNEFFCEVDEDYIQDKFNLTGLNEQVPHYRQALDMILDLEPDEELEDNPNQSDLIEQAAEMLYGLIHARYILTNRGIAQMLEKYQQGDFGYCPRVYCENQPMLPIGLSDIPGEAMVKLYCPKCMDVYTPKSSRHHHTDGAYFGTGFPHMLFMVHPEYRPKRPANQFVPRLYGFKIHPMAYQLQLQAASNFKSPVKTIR

pIC50 [2]	pIC50 (recombinant PIM-1)	pIC50 (recombinant human CK2)	SMILES	other results
5.41	7.68	7.89	COC(=O)c1cccc(-c2ccn3ncc(/C=C4/SC(=S)NC4=O)c3n2)c1	pIC50 [1]: 7.96; pIC50 [3]: 5.06; pIC50 [4]: < 5.00; pIC50 [5]: < 5.00
< 4.52	7.04	7.10	COC(=O)c1cccc(-c2ccn3ncc(/C=C4/SC(=O)NC4=O)c3n2)c1	pIC50 [3]: < 5.00; pIC50 [4]: 7.29; pIC50 (P21_BxPC3): 5.25; pIC50 (P21_MDAMB231): 5.50; pIC50 [5]: < 5.00
< 4.52	6.16	8.05	O=C1NC(=O)/C(=C\c2cnn3ccc(-c4cccc(C(=O)O)c4)nc23)S1	pIC50 [1]: < 6.00; pIC50 [3]: < 5.00; pIC50 [4]: < 5.00; pIC50 [5]: < 5.00
6.07	7.74	8.22	O=C1NC(=S)S/C1=C/c1cnn2ccc(Nc3cccc(Cl)c3)nc12	pIC50 [1]: < 7.52; pIC50 [3]: < 5.00; pIC50 [4]: 6.82; pIC50 (P21_BxPC3): 5.58; pIC50 (P21_MDAMB231): 6.52; pIC50 [5]: < 5.00
6.84	6.37	8.05	O=C1NC(=O)/C(=C\c2cnn3ccc(Nc4cccc(Cl)c4)nc23)N1	pIC50 [1]: < 7.52; pIC50 [3]: 6.11; pIC50 [4]: 6.82; pIC50 (P21_BxPC3): 6.27; pIC50 (P21_MDAMB231): 7.00; pIC50 [5]: 6.97
5.52	7.28	8.52	O=C1NC(=O)/C(=C\c2cnn3ccc(Nc4cccc(Cl)c4)nc23)S1	pIC50 [1]: 6.57; pIC50 [3]: 6.96; pIC50 [4]: 6.88; pIC50 (P21_BxPC3): 6.35; pIC50 (P21_MDAMB231): 6.17; pIC50 [5]: 6.55
	8.40	7.66	Cc1nccn1-c1cccc(Nc2ccn3ncc(/C=C4\SC(=O)NC4=O)c3n2)c1	pIC50 [1]: 5.27; pIC50 [3]: < 5.00; pIC50 [4]: < 5.00; pIC50 [5]: < 5.00
	6.05	6.68	CC(C)(C)c1cccc(Nc2ccn3ncc(/C=C4/NC(=O)NC4=O)c3n2)c1	
	6.97	7.10	CC(C)(C)c1cccc(Nc2ccn3ncc(/C=C4/SC(=O)NC4=O)c3n2)c1	
	6.80	< 5.30	Nc1ccn2ncc(/C=C3\NC(=O)NC3=O)c2n1	
	6.27	7.24	CN1CCN(c2ccc(Nc3ccn4ncc(/C=C5/NC(=O)NC5=O)c4n3)cc2)CC1	
	7.21	6.92	O=C1NC(=O)/C(=C\c2cnn3ccc(Nc4cccc(Cn5ccnc5)c4)nc23)N1	
	6.37	6.84	O=C1NC(=O)/C(=C/c2cnn3ccc(N4CCCCC4)nc23)N1	
	6.62	6.43	CN1C(=O)NC(=O)/C1=C/c1cnn2ccc(Nc3cccc(Cl)c3)nc12	
	6.43	6.34	CCN(CC)Cc1cccc(Nc2ccn3ncc(/C=C4\NC(=O)NC4=O)c3n2)c1	
	5.45	5.71	CN1CCCN(c2ccn3ncc(/C=C4\NC(=O)NC4=O)c3n2)CC1	

pIC50 [2]	pIC50 (recombinant PIM-1)	pIC50 (recombinant human CK2)	SMILES	other results
	6.90	6.89	CN1CCCN(c2ccn3ncc(/C=C4\SC(=O)NC4=O)c3n2)CC1	
	6.29	6.61	CN1CCN(c2cccc(Nc3ccn4ncc(/C=C5\NC(=O)NC5=O)c4n3)c2)CC1	
	5.90	6.52	O=C1NC(=O)/C(=C/c2cnn3ccc(Nc4cccc(OCCN5CCOCC5)c4)nc23)N1	
5.01	5.98	7.64	CC(C)Oc1cccc(Nc2ccn3ncc(/C=C4\NC(=O)NC4=O)c3n2)c1	
5.18	6.46	7.46	CC(C)CNc1ccn2ncc(/C=C3\NC(=O)NC3=O)c2n1	
	6.37	7.24	CN(C)CCOc1ccc(Nc2ccn3ncc(/C=C4\NC(=O)NC4=O)c3n2)cc1	
	5.80	6.24	CC(C)Nc1ccn2ncc(/C=C3\NC(=O)NC3=O)c2n1	
	5.62	5.67	O=C1NC(=O)/C(=C/c2cnn3ccc(NCCF)nc23)N1	
< 5.00	7.60	7.82	O=C1NC(=S)S/C1=C\c1cnn2ccc(-c3ccccc3F)nc12	
< 5.00	6.62	7.39	O=C1NC(=O)/C(=C/c2cnn3ccc(-c4ccccc4F)nc23)S1	
	5.52	6.75	O=C1NC(=O)/C(=C/c2cnn3ccc(-c4ccccc4F)nc23)N1	
	6.71	7.70	O=C1NC(=O)/C(=C/c2cnn3ccc(Nc4ccc(Cl)cc4)nc23)N1	
		8.15	O=C1NC(=O)/C(=C/c2cnn3ccc(Nc4ccc(Cl)cc4)nc23)S1	
		> 7.00	O=C1NC(=O)/C(=C/c2cnn3ccc(-c4ccc(C(=O)NCC5CC5)s4)nc23)N1	IC50 (recombinant human PIM2): 0.58 µM
		> 7.00	CCOCCNC(=O)c1ccc(-c2ccn3ncc(/C=C4\NC(=O)NC4=O)c3n2)s1	IC50 (recombinant human PIM2): 1.06 µM
		> 7.00	CC(O)CNC(=O)c1ccc(-c2ccn3ncc(/C=C4\NC(=O)NC4=O)c3n2)s1 (stereo not drawn)	IC50 (recombinant human PIM2): 0.54 µM
